Laboratory results as given in patent US9416124B2, “Substituted 2-alkyl-1-OXO-N-phenyl-3-heteroaryl-1,2,3,4-tetrahydroisoquinoline-4-carboxamides for antimalarial therapies” (ST. JUDE CHILDREN'S RESEARCH HOSPITAL, priority 2011, dated 2016).
Read-outs that look alike come from different tables or passages of the source.

System: P. falciparum 3D7
Experiment: P. falciparum drug susceptibility assay (3D7)
Assay type: cell-based, Plasmodium falciparum
Protocol: Parasites were grown as previously described in Mallari, J. P., Guiguemde, W. A., and Guy, R. K., Antimalarial activity of thiosemicarbazones and purine derived nitriles, Bioorg Med Chem Lett 19 (13), 3546 (2009). […] DMSO inhibitor stock solutions were pin-transferred (V&P Scientific) into the assay plate and background fluorescence was measured in both relevant channels (485 nm /535 nm, 612 nm /665 nm) in an Envision plate reader (PerkinElmer). Then 20 μl of a synchronized culture suspension (1% rings, 10% hematocrit) were added per well, thus making a final hematocrit and parasitemia of 5% and 1% respectively. Assay plates were incubated for 72 h and parasitemia was determined based on a modified protocol. (Smilkstein, M. et al., Simple and inexpensive fluorescence-based technique for high-throughput antimalarial drug screening. Antimicrob Agents Chemother 48 (5), 1803 (2004)). Briefly, 5 μl of mixed DNA dye solution in RPMI (5X SYBR Green I, 1 μM YOYO-3, 1% v/v Triton X-100, 1 mg/ml saponin) were added per well, assay plates were shaken for 30 s at 2000 rpm, incubated in the dark for 4 h, then read as previously described.

[1] = Plasmodium falciparum, 3D7 strain, racemate unless indicated, read-out: 3D7_EC50

Row | Compound | EC50 [1] [nM] | other results
1 | N#Cc1cc(NC(=O)C2c3ccccc3C(=O)N(CC(F)(F)F)C2c2cn[nH]c2)ccc1F (single isomer, unassigned) [Example 2 l-isomer] |  | EC50 (separated enantiomers, assayed as described in 4a, listed as 2 l, read-out: Potency (nM, 3D7 strain)): 303 nM
2 | CC(C)CN1C(=O)c2ccc(F)cc2[C@H](C(=O)Nc2cc(F)cc(C#N)c2)[C@H]1c1cnn(C)c1 (racemic) [Example 48, N-(3-cyano-5-fluorophenyl)-6-fluoro-2-isobutyl-3-(1-methyl-1H-pyrazol-4-yl)-1-oxo-1,2,3,4-tetrahydroisoquinoline-4-carboxamide] | 19 | 
3 | CC(C)CN1C(=O)c2cc(F)ccc2[C@H](C(=O)Nc2cc(Cl)cc(C#N)c2)[C@H]1c1cnn(C)c1 (racemic) [Example 46, N-(3-chloro-5-cyanophenyl)-7-fluoro-2-isobutyl-3-(1-methyl-1H-pyrazol-4-yl)-1-oxo-1,2,3,4-tetrahydroisoquinoline-4-carboxamide] | 3 | 
4 | O=C(Nc1cccc(OC(F)(F)F)c1)[C@H]1c2ccccc2C(=O)N(CC(F)(F)F)[C@@H]1c1cn[nH]c1 (racemic) [Example 26, 1-oxo-3-(1H-pyrazol-4-yl)-2-(2,2,2-trifluorocthyl)-N-(3-(trifluoromethoxy)phenyl)-1,2,3,4-tetrahydroisoquinoline-4-carboxamide] | 19 | 
5 | CC(C)CN1C(=O)c2ccccc2[C@H](C(=O)Nc2cccc(C#N)c2)[C@H]1c1cccnc1 (racemic) [Example 17, N-(3-cyanophenyl)-2-isobutyl-1-oxo-3-(pyridin-3-yl)-1,2,3,4-tetrahydroisoquinoline-4-carboxamide] | 58 | 
6 | N#Cc1cc(NC(=O)[C@H]2c3cc(F)c(F)cc3C(=O)N(CC(F)(F)F)[C@@H]2c2cn[nH]c2)ccc1F (racemic) [Example 59] | 7 | 
7 | CC(C)CN1C(=O)c2ccccc2[C@H](C(=O)Nc2cc(F)cc(C#N)c2)[C@H]1c1cccnc1 (racemic) [Example 23, N-(3-cyano-5-fluorophenyl)-2-isobutyl-1-oxo-3-(pyridin-3-yl)-1,2,3,4-tetrahydroisoquinoline-4-carboxamide] | 20 | 
8 | CC(C)CN1C(=O)c2ccccc2[C@H](C(=O)Nc2cc(F)cc(C#N)c2)[C@H]1c1cnn(C)c1 (racemic) [Example 21, N-(3-cyano-5-fluorophenyl)-2-isobutyl-3-(1-methyl-1H-pyrazol-4-yl)-1-oxo-1,2,3,4-tetrahydroisoquinoline-4-carboxamide] | 21 | 
9 | CC(C)CN1C(=O)c2cc(F)ccc2[C@H](C(=O)Nc2ccc(F)c(C#N)c2)[C@H]1c1cnn(C)c1 (racemic) [Example 45, N-(3-cyano-4-fluorophenyl)-7-fluoro-2-isobutyl-3-(1-methyl-1H-pyrazol-4-yl)-1-oxo-1,2,3,4-tetrahydroisoquinoline-4-carboxamide] | 20 | 
10 | N#Cc1ccc([C@@H]2[C@@H](C(=O)Nc3ccc(F)c(C#N)c3)c3ccccc3C(=O)N2CC2CC2)s1 (racemic) [Example 54, N-(3-cyano-4-fluorophenyl)-3-(5-cyanothiophen-2-yl)-2-(cyclopropylmethyl)-1-oxo-1,2,3,4-tetrahydroisoquinoline-4-carboxamide] | 11 | 
11 | N#Cc1cccc(NC(=O)[C@H]2c3ccccc3C(=O)N(CC(F)(F)F)[C@@H]2c2cn[nH]c2)c1 (racemic) [Example 14, N-(3-cyanophenyl)-1-oxo-3-(1H-pyrazol-4-yl)-2-(2,2,2-trifluoroethyl)-1,2,3,4-tetrahydroisoquinoline-4-carboxamide] | 30 | 
12 | CC(C)CN1C(=O)c2ccccc2[C@H](C(=O)Nc2ccc(F)c(OC(F)(F)F)c2)[C@H]1c1cccnc1 (racemic) [Example 35, N-(4-fluoro-3-(trifluoromethoxy)phenyl)-2-isobutyl-1-oxo-3-(pyridin-3-yl)-1,2,3,4-tetrahydroisoquinoline-4-carboxamide] | 63 | 
13 | N#Cc1cc(Cl)cc(NC(=O)[C@H]2c3ccccc3C(=O)N(CC(F)(F)F)[C@@H]2c2cn[nH]c2)c1 (racemic) [Example 8, N-(3-chloro-5-cyanophenyl)-1-oxo-3-(1H-pyrazol-4-yl)-2-(2,2,2-trifluoroethyl)-1,2,3,4-tetrahydroisoquinoline-4-carboxamide] | 26 | 
14 | N#Cc1cc(F)cc(NC(=O)C2c3ccccc3C(=O)N(CC(F)(F)F)C2c2cn[nH]c2)c1 (single isomer, unassigned; isomer d) [Example 20 d-isomer, d-N-(3-cyano-5-fluorophenyl)-1-oxo-3-(1H-pyrazol-4-yl)-2-(2,2,2-trifluoroethyl)-1,2,3,4-tetrahydroisoquinoline-4-carboxamide] |  | EC50 (3D7 strain, racemate unless indicated, read-out: 3D7_EC50): 8 nM; EC50 (separated enantiomers, assayed as described in 4a, read-out: Potency (nM, 3D7 strain)): 11 nM
15 | O=C(Nc1cccc(OC(F)(F)F)c1)[C@H]1c2ccccc2C(=O)N(CC(F)(F)F)[C@@H]1c1cccnc1 (racemic) [Example 30, 1-oxo-3-(pyridin-3-yl)-2-(2,2,2-trifluoroethyl)-N-(3-(trifluoromethoxy)phenyl)-1,2,3,4-tetrahydroisoquinoline-4-carboxamide] | 25 | 
16 | CC(C)CN1C(=O)c2ccccc2[C@H](C(=O)Nc2cc(Cl)cc(C#N)c2)[C@H]1c1cccnc1 (racemic) [Example 11, N-(3-chloro-5-cyanophenyl)-2-isobutyl-1-oxo-3-(pyridin-3-yl)-1,2,3,4-tetrahydroisoquinoline-4-carboxamide] | 20 | 
17 | COc1ccc2c(c1)C(=O)N(CC(C)C)[C@H](c1cccnc1)[C@H]2C(=O)Nc1ccc(F)c(C#N)c1 (racemic) [Example 53, N-(3-cyano-4-fluorophenyl)-2-isobutyl-7-methoxy-1-oxo-3-(pyridin-3-yl)-1,2,3,4-tetrahydroisoquinoline-4-carboxamide] | 150 | 
18 | N#Cc1cc(F)cc(NC(=O)[C@H]2c3ccccc3C(=O)N(CC(F)(F)F)[C@@H]2c2cccnc2)c1 (racemic) [Example 24, N-(3-cyano-5-fluorophenyl)-1-oxo-3-(pyridin-3-yl)-2-(2,2,2-trifluoroethyl)-1,2,3,4-tetrahydroisoquinoline-4-carboxamide] | 38 | 
19 | CC(C)CN1C(=O)c2ccccc2[C@H](C(=O)Nc2cc(F)cc(C#N)c2)[C@H]1c1cn[nH]c1 (racemic) [Example 19, N-(3-cyano-5-fluorophenyl)-2-isobutyl-1-oxo-3-(1H-pyrazol-4-yl)-1,2,3,4-tetrahydroisoquinoline-4-carboxamide] | 4 | 
